Data: patent US20240335462A1, “SULFUR/PHOSPHORUS-CONTAINING ARYL COMPOUND AND APPLICATION THEREOF” (MEDSHINE DISCOVERY INC., priority 2021, published 2024)
Like-named read-outs stand apart in the source and are kept apart here.

Key:
[1] = system: TYK2 signaling pathway (IFN-α/pSTAT1); test: IFN-α-induced STAT1 phosphorylation in mouse whole blood; type: cell-based; details: CD3+ cells
Protocol: The purpose of this experiment was to detect the inhibitory effect of the compound on the JAK-STAT signaling pathway activated by IFN-α in mouse whole blood. Fresh mouse whole blood was collected and placed in a 96-well plate. The test compound was added and incubated for 1 hour, followed by stimulation with IFN-α. The corresponding STAT1 phosphorylation level in the CD3^+ cell population was analyzed using flow cytometer by means of surface antibody staining and intracellular phosphorylated antibody staining. The IFN-α-induced STAT1 phosphorylation in mouse whole blood is dependent on TYK2 activity. By detecting the inhibitory activity of the compound on downstream […] phosphorylation, the half maximal inhibitory concentration (IC50) of the compound on TYK2 signaling pathway activity can be determined.
• a) The compound was prepared into a 10 mM solution with dimethyl sulfoxide (DMSO), and diluted in DMSO to a solution with various concentrations, 500 times the final concentration. • b) 5 μL of the diluted compound was transferred to 120 μL of phosphate buffered saline (PBS) containing 0.1% bovine serum albumin (BSA). • c) Positive and negative control groups were set up, with both finally containing 0.2% DMSO.
• a) 67.5 μL of mouse whole blood was added to each well of a 96-well cell culture plate. • b) 3.5 μL of the diluted compound was added thereto and mixed thoroughly. • c) The plate was incubated in a 37° C. incubator for 60 minutes. • d) Mouse interferon recombinant protein was diluted 125-fold in PBS containing 0.1% BSA, and anti-mouse CD3 antibody was diluted 5-fold in PBS containing 0.1% BSA. 5 μL of diluted anti-mouse CD3 antibody and 4 μL of diluted mouse interferon recombinant protein were added to each well. • e) The plate was incubated in a 37° C. incubator for 30 minutes. • f) All cells were transferred to a 96-well deep well plate, and 1 mL of 37° C. pre-warmed 1× lysis/fixation buffer was added thereto. • g) The cells were incubated in the dark at 37° C. for 10 minutes. • h) After centrifugation at 600 g for 5 minutes, the supernatant was discarded, and the cells were washed twice with 1 mL of PBS by centrifugation. • i) 0.4 mL per well of permeabilization buffer was added to the cell pellet and mixed thoroughly. The cells were incubated in the dark at 4° C. for 30 minutes. • j) After centrifugation at 600 g for 5 minutes, the supernatant was discarded, and the cells were washed twice with 1 mL of flow cytometry staining buffer (PBS+0.2% BSA+1 mM EDTA) by centrifugation. • k) Anti-STAT1 antibody was diluted 65-fold in flow cytometry staining buffer, and added to cell-containing wells at 100 μL per well and mixed thoroughly. • l) The cells were incubated at room temperature for 40 minutes. • m) 1 mL per well of flow cytometry staining buffer was added, and the cells were washed twice by centrifugation at 600 g for 5 minutes. • n) The supernatant was discarded, and the cell pellet was resuspended in 300 μL of flow cytometry staining buffer. • o) The samples were loaded for analysis using the Beckman CytoFlex flow cytometer.
Data were analyzed using FlowJo software. Curve fitting was performed and the IC50 was calculated using GraphPad Prism 8 software.

[2] = Pharmacokinetic testing in mice; type: in vivo, male CD-1 mice; details: mouse; for C0: read-out: Starting concentration C0; for Cmax: read-out: Peak concentration Cmax; for Vd: read-out: Apparent volume of distribution Vd; for AUC(0-t): read-out: Area under the curve AUC0-last; for half-life: read-out: Half-life T1/2 (converted); for bioavailability: read-out: Bioavailability F %; for Tmax: read-out: Time to peak concentration Tmax
Protocol: The objective was to study the pharmacokinetic behavior of the compound of the present disclosure in mice and evaluate the pharmacokinetic characteristics, using male CD-1 mice aged 7 to 9 weeks as test animals. The drug concentrations in plasma at different time points after a single intravenous injection (IV) and oral administration (PO) of the compound were determined using LC/MS/MS.
The pharmacokinetic characteristics of the compound in rodents following intravenous injection and oral administration were tested using a standard protocol. Test animals were fasted for 10 to 14 hours before administration and allowed to feed 4 hours post-administration. The compound was prepared into a clear solution with the appropriate solvent for both IV (intravenous injection) and PO (oral gavage) administration. The solvent was 10% DMSO+10% solutol+80% (10% HP-β-CD aqueous solution). Whole blood samples were collected within 24 hours, centrifuged at 6000 g for 3 minutes, and the supernatant was separated to obtain plasma samples. Protein precipitation was performed by adding four times the volume of acetonitrile solution containing internal standard to the plasma samples. After centrifugation, the supernatant was added with an equal volume of water and then centrifuged before being subjected to LC-MS/MS analysis for quantifying plasma drug concentration. Pharmacokinetic parameters such as peak concentration, time to peak concentration, clearance, half-life, area under the drug-time curve, and bioavailability were calculated.

[3] = male, CD-1, plasma, PO 10 mg/kg

For `CNC(=O)c1nnc(NC(=O)C2CC2)cc1Nc1cccc(-c2ncc(S(=N)(=O)C(C)C)cn2)c1OC` (single isomer, unassigned) [WX-011A], the IC50 [1] was 148 nM, the “Apparent clearance Cl” value ([2]; IV 3 mg/kg) was 14.1 mL/min/kg and the “Apparent volume of distribution Vd” value ([2]; IV 3 mg/kg) was 0.8 L/kg. For the same molecule, the “Area under the curve AUC0-last” value ([2]; IV 3 mg/kg) was 6.908 µM·h, the “Half-life T1/2” value ([2]; IV 3 mg/kg) was 252 min and the C0 ([2]; IV 3 mg/kg) was 9.92 µM. The “Area under the curve AUC0-last” value ([2]; PO 10 mg/kg) was 26.715 µM·h, the “Bioavailability F %” value ([2]; PO 10 mg/kg) was 51% and the “Time to peak concentration Tmax” value ([2]; PO 10 mg/kg) was 18 min. The Cmax ([2]; PO 10 mg/kg) was 16.8 µM.

`CNC(=O)c1nnc(NC(=O)C2CC2)cc1Nc1cccc(-c2ncc(S(=N)(=O)C(C)C)cn2)c1OC` (single isomer, unassigned) [WX-011B] showed an IC50 [1] of 375 nM.

`CNC(=O)c1nnc(NC(=O)C2CC2)cc1Nc1cccc(-c2ccc(S(=N)(=O)C(C)C)cn2)c1OC` (single isomer, unassigned) [WX-012B] showed an IC50 [1] of 419 nM.

With `CNC(=O)c1cnc(NC(=O)C2CC2)cc1Nc1cccc(-c2ccc(S(=O)(=O)C(C)C)cn2)c1OC.Cl` [Hydrochloride of WX-020] the “Apparent clearance Cl” value ([2]; IV 3 mg/kg) was 7.0 mL/min/kg, the “Apparent volume of distribution Vd” value ([2]; IV 3 mg/kg) was 1.1 L/kg and the “Area under the curve AUC0-last” value ([2]; IV 3 mg/kg) was 14.13 µM·h. The “Half-life T1/2” value ([2]; IV 3 mg/kg) was 138 min, the C0 ([2]; IV 3 mg/kg) was 8.04 µM and the “Area under the curve AUC0-last” value ([2]; PO 10 mg/kg) was 56.784 µM·h. The “Bioavailability F %” value ([2]; PO 10 mg/kg) was 121%, the “Time to peak concentration Tmax” value ([2]; PO 10 mg/kg) was 30 min and the Cmax ([2]; PO 10 mg/kg) was 15.5 µM.

In the case of `CNC(=O)c1cnc(NC(=O)C2CC2)cc1Nc1cccc(-c2ncc(S(=O)(=O)C(C)C)cn2)c1OC` [WX-019], the IC50 [1] is reported as 427 nM, the Vd ([2]; male, CD-1, plasma, IV 3 mg/kg) is reported as 0.4 L/kg and the AUC(0-t) ([2]; male, CD-1, plasma, IV 3 mg/kg) is reported as 21 µM·h. It also gave a half-life ([2]; male, CD-1, plasma, IV 3 mg/kg) of 66 min, a C0 ([2]; male, CD-1, plasma, IV 3 mg/kg) of 16.3 µM and an AUC(0-t) [2, 3] of 61.2 µM·h. The bioavailability [2, 3] was 87%, the Cmax [2, 3] was 17.3 µM and the Tmax [2, 3] was 48 min. The “Apparent clearance Cl” value ([2]; IV 3 mg/kg) was 4.7 mL/min/kg.

In the case of `CNC(=O)c1cnc(NC(=O)C2CC2)cc1Nc1cccc(-c2ccc(S(=O)(=O)C(C)C)cn2)c1OC` [WX-020], the IC50 [1] is reported as 369 nM.

Work on `CNC(=O)c1nnc(NC(=O)C2CC2)cc1Nc1cccc(-c2ccc(P(=O)(C3CC3)C3CC3)cn2)c1OC` [WX-021] yielded an IC50 [1] of 452 nM, a Vd ([2]; male, CD-1, plasma, IV 3 mg/kg) of 0.9 L/kg and an AUC(0-t) ([2]; male, CD-1, plasma, IV 3 mg/kg) of 11.9 µM·h. It also gave a half-life ([2]; male, CD-1, plasma, IV 3 mg/kg) of 174 min, a C0 ([2]; male, CD-1, plasma, IV 3 mg/kg) of 9.89 µM and an AUC(0-t) [2, 3] of 20.7 µM·h. For the same molecule, the bioavailability [2, 3] was 52%, the Cmax [2, 3] was 11.3 µM and the Tmax [2, 3] was 18 min. For the same molecule, the “Apparent clearance Cl” value ([2]; IV 3 mg/kg) was 8.5 mL/min/kg.
